Experiments:
enzyme R39 [1] = biological target: T1, enzyme R39 (Actinomadura sp. R39, UniProt P39045); assay: Hydrolysis of thioester-type substrate by enzyme R39 and its activation by D-amino acids; format: biochemical; details: for activity of enzyme R39 on the substrate: one unit hydrolyzes 1 micromole of substrate per minute at 47° C.; for activating effect on the thioester hydrolysis reaction by enzyme R39: thioester-type substrate of formula I
From the text: In other words, in the presence of this activator, the rate of hydrolysis of the substrate by enzyme R39 is 40 times higher.

[2] = biological target: T2, enzyme R39 (soluble D-alanyl-D-alanine carboxypeptidase produced by Actinomadura R39) (Actinomadura sp. R39, UniProt P39045); assay: Enzymatic determination of cephapirin in milk (Example 6); format: biochemical
T2 construct: added to milk or serum samples
T2 sequence (P39045 50-515): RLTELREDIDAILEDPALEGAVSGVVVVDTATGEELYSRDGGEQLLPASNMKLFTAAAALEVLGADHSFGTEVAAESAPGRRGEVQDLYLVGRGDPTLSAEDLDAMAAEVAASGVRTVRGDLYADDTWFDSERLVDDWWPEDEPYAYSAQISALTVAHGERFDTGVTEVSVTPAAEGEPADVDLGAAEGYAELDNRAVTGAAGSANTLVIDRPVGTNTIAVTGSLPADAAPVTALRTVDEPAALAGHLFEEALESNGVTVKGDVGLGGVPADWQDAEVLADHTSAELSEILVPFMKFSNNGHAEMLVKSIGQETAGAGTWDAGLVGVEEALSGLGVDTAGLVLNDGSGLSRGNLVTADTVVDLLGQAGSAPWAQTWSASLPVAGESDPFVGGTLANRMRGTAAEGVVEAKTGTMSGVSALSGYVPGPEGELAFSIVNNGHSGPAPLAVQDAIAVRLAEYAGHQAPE
Protocol: The process is the same as in example 3, but the samples of 3 ml of milk contain known concentrations of cephapirin.

[3] = biological target: T2, enzyme R39 (soluble D-alanyl-D-alanine carboxypeptidase produced by Actinomadura R39); assay: Enzymatic determination of penicillin G in milk with [(N-phenylacetyl-D-alanyl)thio]-acetic acid as substrate (Example 4); format: biochemical; details: Example 4, Table IV
Protocol: The process is the same as in example 3, except that, after the first incubation, 120 μl of an aqueous solution containing 5 mg/ml of [(N-phenylacetyl-D-alanyl)thio]-acetic acid are added.

[4] = system: cells or cell parts of Bacillus stearothermiphilus; details: enzyme-tagged antibiotic, visual colorimetric method; cited from earlier work
enzyme R39 [5] = biological target: T1, enzyme R39; details: about 20 μl milk, 3 picomoles enzyme R39, cited from earlier work

T1 sequence (P39045 50-515): as above

Molecule: C[C@@H](NC(=O)c1ccccc1)C(=O)SCC(=O)O [[(N-benzoyl-D-alanyl)thio]-acetic acid]
- performance as substrate for enzyme R39 (enzyme R39 [1]; among thioesters of formula I): best results
- activity of enzyme R39 on the substrate (enzyme R39 [1]; in the absence of D-alanine): 8 units per milligram of enzyme
- activity of enzyme R39 on the substrate (enzyme R39 [1]; in the presence of D-alanine): 320 units per milligram of enzyme

Molecule: CC(=O)OCC1=C(C(=O)O)N2C(=O)[C@@H](NC(=O)CSc3ccncc3)[C@H]2SC1 [cephapirin]
- Coloration ([2]; cephapirin 0.002 μg/ml in 3 ml milk): medium yellow
- Coloration ([2]; cephapirin 0.003 μg/ml in 3 ml milk): pale yellow
- Coloration ([2]; cephapirin 0.004 μg/ml in 3 ml milk): white
- Coloration ([2]; cephapirin 0.006 μg/ml in 3 ml milk): white
- cephapirin concentration in milk detected visually ([2]; in 15 minutes time): 0.004 µg/mL

Molecule: C[C@@H](NC(=O)Cc1ccccc1)C(=O)SCC(=O)O [[(N-phenylacetyl-D-alanyl)thio]-acetic acid]
- process carried out with this compound as substrate [3]: successfully

Molecule: N[C@H](Cc1ccccc1)C(=O)O [D-phenylalanine]
- activating effect on the thioester hydrolysis reaction by enzyme R39 (enzyme R39 [1]): best activators

Molecule: N[C@H](CO)C(=O)O [D-serine]
- activating effect on the thioester hydrolysis reaction by enzyme R39 (enzyme R39 [1]): best activators

Molecule: C[C@@H](N)C(=O)O [D-alanine]
- activating effect on the thioester hydrolysis reaction by enzyme R39 (enzyme R39 [1]): best activators

Molecule: N[C@H](Cc1c[nH]cn1)C(=O)O [D-histidine]
- activating effect on the thioester hydrolysis reaction by enzyme R39 (enzyme R39 [1]): best activators

Molecule: penicillin
- penicillin concentration threshold detected in milk [4]: 0.05 IU/ml
- penicillin concentration in milk quantitatively determined (spectrophotometer) (enzyme R39 [5]): 0.02 I.U./ml
- penicillin concentration in milk qualitatively determined by the visual method (enzyme R39 [5]; in less than one hour): more than 0.09 I.U./ml

Molecule: N[C@H](Cc1c[nH]c2ccccc12)C(=O)O [D-tryptophan]
- activating effect on the thioester hydrolysis reaction by enzyme R39 (enzyme R39 [1]): best activators

Molecule: CSCC[C@@H](N)C(=O)O [D-methionine]
- activating effect on the thioester hydrolysis reaction by enzyme R39 (enzyme R39 [1]): best activators

Molecule: CC(C)[C@@H](N)C(=O)O [D-valine]
- activating effect on the thioester hydrolysis reaction by enzyme R39 (enzyme R39 [1]): best activators

Molecule: N=C(N)NCCC[C@@H](N)C(=O)O [D-arginine]
- activating effect on the thioester hydrolysis reaction by enzyme R39 (enzyme R39 [1]): best activators

Molecule: NCC(=O)O [glycine]
- activating effect on the thioester hydrolysis reaction by enzyme R39 (enzyme R39 [1]): activating effect

Molecule: CC[C@@H](N)C(=O)O [D-2-aminobutyric acid]
- activating effect on the thioester hydrolysis reaction by enzyme R39 (enzyme R39 [1]): best activators
